Measured values reported in patent US6930203B2, “Gelling agents or thickeners” (Applied NanoSystems B.V., priority 2001, dated 2005).

Experiments:
Format in all cases: physicochemical
[1] = Phase diagram, dropping ball method; conditions: in cyclohexane, silicon oil and p-xylene
Experimental: FIG. 1 depicts a phase diagram of 5 (C6-Glu-C6) and 15 (C12-Glu-C12) determined with the dropping ball method.
Phase Diagram of 5 (C6-Glu-C6) and 15 (C12-Glu-C12)) Dropping Ball Method)
The phase diagram of 5 (C6-Glu-C6) and 15 (C12-Glu-C12) was determined (see FIG. 1) by using the dropping ball method (A. Takashi, M. Sakai, T. Kato, Polym. J., 12 (1980) 335-341, F. S. Schoonbeek, J. H. van Esch, R. Hulst, R. M. Kellogg, B. L. Feringa, Chem. Eur. J., 6 (2000) 2633-2643).

[2] = Cold gelation: addition of a solution of the gelling agent (10% in NMP, 0.05 ml) to an organic solution (0.5 ml); set-up: key: g = gelation; s = soluble; p = precipitates; c = crystallizes; ns = not soluble; v = viscous; g* = unstable gel, precipitates; cg = crystalline gel
Source text: (§1) Preferred examples include aromatic and nonaromatic hydrocarbons, alcohols, ethers, esters, aldehydes, alkanoic acids, epoxides, amines, halogenated hydrocarbons, silicon oils, vegetable oils, phosphoric esters, sulfoxides, water and mixtures thereof. In order to obtain a gel, the gelling agent or thickener is preferably mixed with the composition to be transformed to a gel in an amount of between 0.01 and 50 wt. %, based on the weight of the composition. In a preferred embodiment, the mixture of the gelling agent or thickener and the composition is heated to allow for an even better gel formation or thickening. Typically, the heating will involve raising the temperature of the mixture to about 30-175° C. until a clear solution is obtained. In an alternative embodiment, the gelling agent is first dissolved in a polar or apolar solvent and then added to or sprayed into a composition or solvent to be converted into a gel.
Addition of a solution of the gelling agent (10% in NMP, 0.05 ml) to an organic solution (0.5 ml, “cold gelation”)

[3] = Solvent scope of N,N′-dialkylaldaramides (1%) or N,N′-dialkylpentaramides (1%): gelation/solubility behaviour in solvents; set-up: key: g = gelation; s = soluble; p = precipitates; c = crystallizes; ns = not soluble; v = viscous; g* = unstable gel, precipitates; cg = crystalline gel; conditions: 1% gelling agent
Source text: It will be understood that the use of the present gelling agents or thickeners to prepare a gel or to thicken a composition is also encompassed by the invention. As is well known, gelling behavior of compounds or compositions is highly unpredictable. […] Preferably, the gelling phenomenon is thermo reversible.
as §1
Solvent scope of N,N′-dialkylaldaramides (1%) or N,N′-dialkylpentaramides (1%) 1-24 refers to the compounds prepared in Examples 1-23)

[4] = Maximum gelator concentration
Source text: Maximum gelator concentration of 5 (C6-Glu-C6) and 15 (C12-Glu-C12)

[5] = Gelation of N,N′-dialkyladaramides (1%) in mixtures of solvents; set-up: key: g = gelation; s = soluble; p = precipitates; c = crystallizes; ns = not soluble; v = viscous; g* = unstable gel, precipitates; cg = crystalline gel; conditions: 1% gelling agent
Source text: as §1
Gelation of N,N′-dialkyladaramides (1%) in Mixtures of Solvents

[6] = Solubility in several solvents tested (for NMR)
Experimental: Synthesis of didodecyl galactaramide. Diethyl galacterate (2.66 g, 10.0 mmol) was added to a solution of dodecylamine (3.75 g, 20.5 mmol) in EtOH (50 ml). After 72 hours stirring, the precipitate was filtered (yield 4.87 g, 8.9 mmol, 89%).
Synthesis of dicyclododecyl galactaramide. Diethyl galacterate (2.67 15 g, 10.0 mmol) was added to a solution of cyclododecylamine (3.78 g, 20.7 mmol) in EtOH (50 ml). After 48 hours stirring, the precipitate was filtered and washed with H2O and EtOH (yield 2.43 g, 4.5 mmol, 45%).

O=C(NC1CCCCCCCCCCC1)[C@@H](O)[C@@H](O)[C@H](O)[C@@H](O)C(=O)NC1CCCCCCCCCCC1 [Example 15, dicyclododecyl D-glucaramide]
Correlation between Tm^−1 and the logarithm of the mole fraction [1]: linear correlation | Cold gelation in 1,2-dichloroethane ([2]; 0.05 ml added to 0.5 ml 1,2-dichloroethane): c | Cold gelation in Acetone ([2]; 0.05 ml added to 0.5 ml Acetone): cg | Cold gelation in Acetonitril ([2]; 0.05 ml added to 0.5 ml Acetonitril): g | Cold gelation in Chloroform ([2]; 0.05 ml added to 0.5 ml Chloroform): s | Cold gelation in Heptane ([2]; 0.05 ml added to 0.5 ml Heptane): p | Cold gelation in Hexane ([2]; 0.05 ml added to 0.5 ml Hexane): p | Cold gelation in Toluene ([2]; 0.05 ml added to 0.5 ml Toluene): g | Cold gelation in benzaldehyde ([2]; 0.05 ml added to 0.5 ml benzaldehyde): s | Cold gelation in cyclohexane ([2]; 0.05 ml added to 0.5 ml cyclohexane): g | Cold gelation in diethyl ether ([2]; 0.05 ml added to 0.5 ml diethyl ether): g | Cold gelation in ethylacetate ([2]; 0.05 ml added to 0.5 ml ethylacetate): p | Cold gelation in methyl laurate ([2]; 0.05 ml added to 0.5 ml methyl laurate): g | Cold gelation in n-butyl acetate ([2]; 0.05 ml added to 0.5 ml n-butyl acetate): g | Cold gelation in silicon oil ([2]; 0.05 ml added to 0.5 ml silicon oil): g | Cold gelation in tetrahydrofuran ([2]; 0.05 ml added to 0.5 ml tetrahydrofuran): c | Gelation/solubility behaviour in 1,2-dichloroethane [3]: g | Gelation/solubility behaviour in 2-methoxyethanol [3]: c | Gelation/solubility behaviour in 2-octanol [3]: s | Gelation/solubility behaviour in 2-propanol [3]: c | Gelation/solubility behaviour in Cyclohexane [3]: g | Gelation/solubility behaviour in Dimethylsulfoxide [3]: cg | Gelation/solubility behaviour in Ethanol [3]: cg | Gelation/solubility behaviour in Hexadecane [3]: ns | Gelation/solubility behaviour in Toluene [3]: g | Gelation/solubility behaviour in Water [3]: ns | Gelation/solubility behaviour in methyl benzoic acid [3]: g | Gelation/solubility behaviour in methyl laurate [3]: g | Gelation/solubility behaviour in n-butylacetate [3]: g | Gelation/solubility behaviour in p-xylene [3]: g | Gelation/solubility behaviour in silicon oil [3]: g | Maximum gelator concentration in 1,2-dichloroethane ([4]; 1,2-dichloroethane): <50% | Maximum gelator concentration in Toluene ([4]; Toluene): <50% | Maximum gelator concentration in cyclohexane ([4]; cyclohexane): <5% | Maximum gelator concentration in methyl laurate ([4]; methyl laurate): <5% | Maximum gelator concentration in n-butylacetate ([4]; n-butylacetate): <50% | Maximum gelator concentration in silicon oil (Dow Corning 702) ([4]; silicon oil (Dow Corning 702)): <50% | Gelation in cyclohexane ([5]; Cyclohexane): g | Gelation in Dioxane ([5]; Dioxane): cg | Gelation in H2O ([5]; H2O): ns | Gelation in cyclohexane/dioxane 1:1 ([5]; cyclohexane/dioxane 1:1): cg | Gelation in dioxane/H2O 1:1 ([5]; dioxane/H2O 1:1): g | Gelation in dioxane/H2O 1:2 ([5]; dioxane/H2O 1:2): ns | Gelation in dioxane/H2O 2:1 ([5]; dioxane/H2O 2:1): cg | Gelation in dioxane/H2O 3:1 ([5]; dioxane/H2O 3:1): cg

O=C(NC1CCCCCCCCCCC1)[C@@H](O)[C@H](O)[C@H](O)[C@@H](O)C(=O)NC1CCCCCCCCCCC1 [Example 17, dicyclododecyl galactaramide]
Gelation/solubility behaviour in 1,2-dichloroethane [3]: ns | Gelation/solubility behaviour in 2-methoxyethanol [3]: ns | Gelation/solubility behaviour in 2-octanol [3]: ns | Gelation/solubility behaviour in 2-propanol [3]: ns | Gelation/solubility behaviour in Cyclohexane [3]: ns | Gelation/solubility behaviour in Dimethylsulfoxide [3]: ns | Gelation/solubility behaviour in Ethanol [3]: ns | Gelation/solubility behaviour in Hexadecane [3]: ns | Gelation/solubility behaviour in Toluene [3]: ns | Gelation/solubility behaviour in Water [3]: ns | Gelation/solubility behaviour in methyl benzoic acid [3]: ns | Gelation/solubility behaviour in methyl laurate [3]: ns | Gelation/solubility behaviour in n-butylacetate [3]: ns | Gelation/solubility behaviour in p-xylene [3]: ns | Gelation/solubility behaviour in silicon oil [3]: ns | Solubility in several solvents tested [6]: low solubility

CCCCCCCCCCCCNC(=O)[C@@H](O)[C@H](O)[C@H](O)[C@@H](O)C(=O)NCCCCCCCCCCCC [Example 14, didodecyl galactaramide]
Gelation/solubility behaviour in 1,2-dichloroethane [3]: ns | Gelation/solubility behaviour in 2-octanol [3]: ns | Gelation/solubility behaviour in 2-propanol [3]: ns | Gelation/solubility behaviour in Cyclohexane [3]: ns | Gelation/solubility behaviour in Dimethylsulfoxide [3]: ns | Gelation/solubility behaviour in Ethanol [3]: ns | Gelation/solubility behaviour in Hexadecane [3]: ns | Gelation/solubility behaviour in Toluene [3]: ns | Gelation/solubility behaviour in Water [3]: ns | Gelation/solubility behaviour in n-butylacetate [3]: ns | Gelation/solubility behaviour in p-xylene [3]: ns | Solubility in several solvents tested [6]: low solubility
